How the values were obtained:
[1] = molecular target: 5-hydroxytryptamine receptor 2A (Rattus norvegicus, UniProt P14842)
D(2) dopamine receptor = D(2) dopamine receptor (Rattus norvegicus, UniProt P61169)
[2] = molecular target: 5-hydroxytryptamine 1D receptor (Bos taurus, UniProt Q8MI13)
[3] = molecular target: 5-hydroxytryptamine receptor 1B (Rattus norvegicus, UniProt P28564)
[4] = molecular target: T1, Alpha-1A adrenergic receptor (Rattus norvegicus, UniProt P43140)
T1 sequence (P43140 whole entry): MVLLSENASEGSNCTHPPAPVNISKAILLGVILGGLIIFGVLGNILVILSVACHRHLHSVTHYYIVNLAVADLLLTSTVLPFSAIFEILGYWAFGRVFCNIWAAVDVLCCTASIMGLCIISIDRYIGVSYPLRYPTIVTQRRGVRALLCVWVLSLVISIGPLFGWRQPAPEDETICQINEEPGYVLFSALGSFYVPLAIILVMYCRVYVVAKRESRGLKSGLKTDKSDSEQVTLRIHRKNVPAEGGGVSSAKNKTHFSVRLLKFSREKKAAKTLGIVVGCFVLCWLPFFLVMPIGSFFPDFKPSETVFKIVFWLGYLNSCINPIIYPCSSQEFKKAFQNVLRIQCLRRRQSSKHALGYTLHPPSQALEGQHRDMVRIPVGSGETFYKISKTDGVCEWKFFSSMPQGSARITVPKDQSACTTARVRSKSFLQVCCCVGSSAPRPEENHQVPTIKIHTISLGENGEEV

[5] = molecular target: Sodium channel protein type 10 subunit alpha (Rattus norvegicus, UniProt Q62968)
[6] = molecular target: T2, 5-hydroxytryptamine receptor 2C (Sus scrofa, UniProt G7ZKZ7)
T2 sequence (G7ZKZ7 whole entry): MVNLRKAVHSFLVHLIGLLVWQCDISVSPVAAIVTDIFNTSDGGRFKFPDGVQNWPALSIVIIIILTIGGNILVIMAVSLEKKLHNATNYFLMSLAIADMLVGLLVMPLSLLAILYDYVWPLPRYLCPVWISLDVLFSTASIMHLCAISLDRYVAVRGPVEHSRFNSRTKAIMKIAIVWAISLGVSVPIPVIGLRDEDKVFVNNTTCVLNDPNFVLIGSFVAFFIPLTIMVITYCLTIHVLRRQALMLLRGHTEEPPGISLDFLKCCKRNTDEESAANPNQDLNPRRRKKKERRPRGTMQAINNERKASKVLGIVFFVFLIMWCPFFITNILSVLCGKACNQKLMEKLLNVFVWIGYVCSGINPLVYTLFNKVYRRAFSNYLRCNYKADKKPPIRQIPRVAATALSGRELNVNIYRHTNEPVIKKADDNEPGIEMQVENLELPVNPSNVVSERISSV

[7] = molecular target: T3, Alpha-2C adrenergic receptor (Rattus norvegicus, UniProt P22086)
T3 sequence (P22086 whole entry): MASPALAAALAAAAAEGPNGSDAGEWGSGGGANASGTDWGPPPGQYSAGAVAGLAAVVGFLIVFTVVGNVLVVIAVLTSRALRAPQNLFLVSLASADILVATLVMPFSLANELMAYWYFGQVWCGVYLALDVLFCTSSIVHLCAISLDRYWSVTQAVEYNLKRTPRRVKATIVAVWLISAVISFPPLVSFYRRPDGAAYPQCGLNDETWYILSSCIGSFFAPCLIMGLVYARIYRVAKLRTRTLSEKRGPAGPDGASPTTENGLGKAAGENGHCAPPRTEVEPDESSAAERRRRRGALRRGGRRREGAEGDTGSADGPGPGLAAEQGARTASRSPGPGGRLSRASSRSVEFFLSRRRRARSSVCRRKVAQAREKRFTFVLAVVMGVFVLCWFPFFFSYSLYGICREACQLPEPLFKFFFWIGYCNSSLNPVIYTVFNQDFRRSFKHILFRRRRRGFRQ

D(1A) dopamine receptor = D(1A) dopamine receptor (Rattus norvegicus, UniProt P18901)
Histamine H1 receptor = Histamine H1 receptor (Rattus norvegicus, UniProt P31390)
Chain of Histamine H1 receptor (P31390 whole entry): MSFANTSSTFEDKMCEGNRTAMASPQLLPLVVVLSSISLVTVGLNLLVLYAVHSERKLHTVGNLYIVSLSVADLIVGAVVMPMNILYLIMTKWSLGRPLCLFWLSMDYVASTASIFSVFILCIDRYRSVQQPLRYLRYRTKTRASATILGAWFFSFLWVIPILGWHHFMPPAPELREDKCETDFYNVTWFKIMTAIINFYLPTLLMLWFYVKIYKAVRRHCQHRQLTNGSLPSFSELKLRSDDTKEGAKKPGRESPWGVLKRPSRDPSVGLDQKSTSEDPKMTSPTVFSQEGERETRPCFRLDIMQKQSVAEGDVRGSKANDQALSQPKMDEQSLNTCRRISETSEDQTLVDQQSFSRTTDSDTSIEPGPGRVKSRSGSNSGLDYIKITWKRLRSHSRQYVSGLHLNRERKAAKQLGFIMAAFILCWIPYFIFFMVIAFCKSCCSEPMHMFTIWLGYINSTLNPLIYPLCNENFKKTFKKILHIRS

Chain of Sodium channel protein type 10 subunit alpha (Q62968 whole entry): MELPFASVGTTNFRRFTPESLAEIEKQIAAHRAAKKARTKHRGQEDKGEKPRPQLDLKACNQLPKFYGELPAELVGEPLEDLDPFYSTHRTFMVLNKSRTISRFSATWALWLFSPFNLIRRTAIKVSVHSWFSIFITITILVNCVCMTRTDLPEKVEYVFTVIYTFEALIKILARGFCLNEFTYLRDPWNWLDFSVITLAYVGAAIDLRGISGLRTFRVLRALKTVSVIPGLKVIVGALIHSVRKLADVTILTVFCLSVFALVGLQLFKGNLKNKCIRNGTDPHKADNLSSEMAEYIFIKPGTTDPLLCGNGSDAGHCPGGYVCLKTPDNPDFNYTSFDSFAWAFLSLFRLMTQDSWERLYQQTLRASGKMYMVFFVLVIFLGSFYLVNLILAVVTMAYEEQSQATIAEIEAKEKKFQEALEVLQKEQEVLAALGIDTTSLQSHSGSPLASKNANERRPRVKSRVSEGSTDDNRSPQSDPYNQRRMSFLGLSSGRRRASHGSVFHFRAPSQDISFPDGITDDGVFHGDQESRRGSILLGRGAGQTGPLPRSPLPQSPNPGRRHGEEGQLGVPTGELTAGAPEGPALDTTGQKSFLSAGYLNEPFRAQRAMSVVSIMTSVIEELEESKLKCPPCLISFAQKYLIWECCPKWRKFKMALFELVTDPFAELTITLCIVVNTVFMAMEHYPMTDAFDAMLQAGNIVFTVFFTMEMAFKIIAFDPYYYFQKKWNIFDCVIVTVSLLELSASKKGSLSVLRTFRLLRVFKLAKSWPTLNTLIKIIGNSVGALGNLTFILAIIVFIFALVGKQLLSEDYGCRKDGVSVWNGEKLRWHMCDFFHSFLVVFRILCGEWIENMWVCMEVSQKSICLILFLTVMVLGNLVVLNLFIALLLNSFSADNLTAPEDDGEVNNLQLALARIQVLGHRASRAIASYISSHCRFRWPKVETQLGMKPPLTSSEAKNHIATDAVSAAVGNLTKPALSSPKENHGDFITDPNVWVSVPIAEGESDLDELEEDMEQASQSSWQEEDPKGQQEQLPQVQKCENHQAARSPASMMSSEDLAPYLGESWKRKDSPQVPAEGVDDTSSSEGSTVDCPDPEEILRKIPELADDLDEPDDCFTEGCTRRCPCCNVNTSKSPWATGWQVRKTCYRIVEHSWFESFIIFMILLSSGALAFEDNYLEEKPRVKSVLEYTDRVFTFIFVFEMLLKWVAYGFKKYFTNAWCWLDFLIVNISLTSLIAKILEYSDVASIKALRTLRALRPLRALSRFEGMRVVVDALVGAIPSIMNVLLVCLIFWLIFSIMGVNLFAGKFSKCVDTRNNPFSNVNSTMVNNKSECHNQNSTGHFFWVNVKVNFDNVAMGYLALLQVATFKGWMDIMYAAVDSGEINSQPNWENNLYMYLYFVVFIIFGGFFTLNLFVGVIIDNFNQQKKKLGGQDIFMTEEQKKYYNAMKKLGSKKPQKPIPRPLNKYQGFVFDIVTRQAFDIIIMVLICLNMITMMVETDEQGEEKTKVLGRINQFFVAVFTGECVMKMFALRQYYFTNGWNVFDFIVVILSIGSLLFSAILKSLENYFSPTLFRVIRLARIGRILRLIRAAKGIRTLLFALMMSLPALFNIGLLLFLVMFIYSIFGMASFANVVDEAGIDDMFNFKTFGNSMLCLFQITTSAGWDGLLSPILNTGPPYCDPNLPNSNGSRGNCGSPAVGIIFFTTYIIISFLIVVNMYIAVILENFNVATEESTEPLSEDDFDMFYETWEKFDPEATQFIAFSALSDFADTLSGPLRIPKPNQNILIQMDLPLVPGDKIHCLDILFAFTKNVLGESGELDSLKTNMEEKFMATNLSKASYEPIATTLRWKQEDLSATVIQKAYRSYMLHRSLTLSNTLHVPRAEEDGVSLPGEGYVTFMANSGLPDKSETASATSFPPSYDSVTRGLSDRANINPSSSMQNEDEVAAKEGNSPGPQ
Chain of 5-hydroxytryptamine 1D receptor (Q8MI13 whole entry): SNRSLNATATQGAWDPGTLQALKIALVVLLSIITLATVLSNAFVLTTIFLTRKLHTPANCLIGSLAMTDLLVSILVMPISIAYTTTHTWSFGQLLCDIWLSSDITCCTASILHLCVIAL
Chain of 5-hydroxytryptamine receptor 2A (P14842 whole entry): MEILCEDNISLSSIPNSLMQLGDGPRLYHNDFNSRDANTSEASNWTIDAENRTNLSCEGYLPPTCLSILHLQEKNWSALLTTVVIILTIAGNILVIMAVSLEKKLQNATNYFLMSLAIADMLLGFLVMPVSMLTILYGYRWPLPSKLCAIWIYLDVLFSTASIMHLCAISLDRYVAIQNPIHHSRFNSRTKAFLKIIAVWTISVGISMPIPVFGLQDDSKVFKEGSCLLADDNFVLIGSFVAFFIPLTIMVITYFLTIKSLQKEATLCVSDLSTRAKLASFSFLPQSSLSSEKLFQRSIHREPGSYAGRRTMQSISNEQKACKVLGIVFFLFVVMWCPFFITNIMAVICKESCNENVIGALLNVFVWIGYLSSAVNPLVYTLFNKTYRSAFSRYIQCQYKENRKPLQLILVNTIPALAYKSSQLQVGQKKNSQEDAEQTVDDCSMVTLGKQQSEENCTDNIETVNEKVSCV
Chain of D(1A) dopamine receptor (P18901 whole entry): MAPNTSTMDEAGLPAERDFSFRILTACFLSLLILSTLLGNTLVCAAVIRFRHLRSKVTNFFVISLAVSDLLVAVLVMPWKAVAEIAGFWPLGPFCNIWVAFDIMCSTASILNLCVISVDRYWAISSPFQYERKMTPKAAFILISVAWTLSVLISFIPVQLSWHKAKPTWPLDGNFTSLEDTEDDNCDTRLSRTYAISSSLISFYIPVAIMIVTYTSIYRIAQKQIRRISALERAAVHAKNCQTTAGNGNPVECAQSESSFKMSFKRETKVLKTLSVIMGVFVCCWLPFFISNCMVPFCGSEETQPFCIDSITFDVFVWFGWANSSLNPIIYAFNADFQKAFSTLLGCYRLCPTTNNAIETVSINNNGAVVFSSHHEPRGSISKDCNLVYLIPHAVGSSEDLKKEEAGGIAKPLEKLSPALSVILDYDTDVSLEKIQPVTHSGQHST
Chain of 5-hydroxytryptamine receptor 1B (P28564 whole entry): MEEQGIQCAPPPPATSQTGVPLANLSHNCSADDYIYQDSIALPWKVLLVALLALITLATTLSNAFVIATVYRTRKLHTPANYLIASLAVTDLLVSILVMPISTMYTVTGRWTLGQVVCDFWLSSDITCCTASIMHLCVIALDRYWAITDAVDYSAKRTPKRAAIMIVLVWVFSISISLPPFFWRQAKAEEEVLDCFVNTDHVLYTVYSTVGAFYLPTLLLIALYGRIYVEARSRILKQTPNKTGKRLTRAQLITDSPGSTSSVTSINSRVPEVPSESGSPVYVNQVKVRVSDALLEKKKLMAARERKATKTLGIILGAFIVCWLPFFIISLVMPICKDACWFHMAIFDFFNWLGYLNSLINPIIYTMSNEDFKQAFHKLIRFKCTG
Chain of D(2) dopamine receptor (P61169 whole entry): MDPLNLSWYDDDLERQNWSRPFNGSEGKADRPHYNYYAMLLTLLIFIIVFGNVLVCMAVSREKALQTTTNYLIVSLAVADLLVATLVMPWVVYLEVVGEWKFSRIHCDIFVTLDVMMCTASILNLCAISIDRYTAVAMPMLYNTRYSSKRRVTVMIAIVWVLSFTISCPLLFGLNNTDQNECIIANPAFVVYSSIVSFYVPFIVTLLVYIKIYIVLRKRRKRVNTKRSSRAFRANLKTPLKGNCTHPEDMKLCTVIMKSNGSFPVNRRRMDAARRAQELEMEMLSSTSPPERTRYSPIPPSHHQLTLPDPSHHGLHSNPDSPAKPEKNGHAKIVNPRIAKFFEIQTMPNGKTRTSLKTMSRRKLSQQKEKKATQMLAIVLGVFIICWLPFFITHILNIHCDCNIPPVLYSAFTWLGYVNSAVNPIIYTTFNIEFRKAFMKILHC

CN(C)CCON=C(C=Cc1ccc(O)cc1)c1ccccc1F [NSC_6438382]
Ki [1]: 5.8 nM
Ki (D(2) dopamine receptor): > 10 µM
Ki [2]: > 10 µM
Ki [3]: > 10 µM
Ki [4]: 3.4 µM
Ki [5]: > 10 µM
Ki [6]: 120 nM
Ki [7]: 1000 nM
Ki (D(1A) dopamine receptor): 9 µM
Ki (Histamine H1 receptor): 5 µM
